Measurements published in ChEMBL document CHEMBL3632488, “Discovery of potent and selective cytotoxic activity of new quinazoline-ureas against TMZ-resistant glioblastoma multiforme (GBM)” (Eur J Med Chem, 2015).
Activity calls are given as the source filed them. No cut-off for these calls is given here.

What was measured:
[1] = Selectivity index, ratio of IC50 for normal human astrocytes to IC50 for human GBM1 cells
[2] = Antiproliferative activity against human GBM2 cells assessed as reduction in cell viability incubated for 72 hrs by WST-1 method; type: functional, cell-based; details: GBM2, 72 h
[3] = Antiproliferative activity against human GBM1 cells assessed as reduction in cell viability at 10 uM incubated for 72 hrs by WST-1 method; type: functional; details: GBM1, 72 h
[4] = system: GBM2; test: Induction of apoptosis in human GBM2 cells assessed as loss of mitochondrial membrane potential in presence of PK11195 at 10 uM after 2 hrs by JC-1 staining based fluorescence microscopy; type: functional, cell-based
[5] = system: GBM; test: Tumoricidal effect in patient derived GBM 025T cells assessed as reduction in neurosphere formation at 0.5 uM after 1 to 2 weeks by 3D tumor clonogenic assay; type: functional, cell-based; details: Homo sapiens
[6] = target: Cytochrome P450 3A4 (Homo sapiens, UniProt P08684); test: Inhibition of CYP3A4 (unknown origin) using luciferin tagged substrate preincubated for 10 mins before substrate addition; type: ADME
[7] = Antiproliferative activity against human GBM3 cells assessed as reduction in cell viability incubated for 72 hrs by WST-1 method; type: functional, cell-based; details: GBM3, 72 h
[8] = target: Cytochrome P450 2C9 (Homo sapiens, UniProt P11712); test: Inhibition of CYP2C9 (unknown origin) using luciferin tagged substrate preincubated for 10 mins before substrate addition; type: ADME
[9] = target: Translocator protein (Rattus norvegicus) (UniProt P16257); test: Displacement of [3H]PK11195 from TSPO receptor in Sprague-Dawley rat cerebral cortex membrane at 1 uM by radiometric competitive assay; type: tissue-based
[10] = target: Voltage-gated inwardly rectifying potassium channel KCNH2 (Homo sapiens, UniProt Q12809); test: Displacement of [3H]astemizole from human ERG potassium channel expressed in HEK293 cell membrane after 1 hr; type: cell membranes
[11] = system: GBM1; test: Induction of apoptosis in human GBM1 cells assessed as loss of mitochondrial membrane potential at 10 uM after 2 hrs by JC-1 staining based fluorescence microscopy; type: functional, cell-based
[12] = Antiproliferative activity against human GBM1 cells assessed as reduction in cell viability incubated for 72 hrs by WST-1 method; type: functional, cell-based; details: GBM1, 72 h
[13] = target: T1, Cytochrome P450 1A2 (Homo sapiens, UniProt P05177); test: Inhibition of CYP1A2 (unknown origin) using luciferin tagged substrate preincubated for 10 mins before substrate addition; type: ADME
T1 sequence (P05177 whole entry): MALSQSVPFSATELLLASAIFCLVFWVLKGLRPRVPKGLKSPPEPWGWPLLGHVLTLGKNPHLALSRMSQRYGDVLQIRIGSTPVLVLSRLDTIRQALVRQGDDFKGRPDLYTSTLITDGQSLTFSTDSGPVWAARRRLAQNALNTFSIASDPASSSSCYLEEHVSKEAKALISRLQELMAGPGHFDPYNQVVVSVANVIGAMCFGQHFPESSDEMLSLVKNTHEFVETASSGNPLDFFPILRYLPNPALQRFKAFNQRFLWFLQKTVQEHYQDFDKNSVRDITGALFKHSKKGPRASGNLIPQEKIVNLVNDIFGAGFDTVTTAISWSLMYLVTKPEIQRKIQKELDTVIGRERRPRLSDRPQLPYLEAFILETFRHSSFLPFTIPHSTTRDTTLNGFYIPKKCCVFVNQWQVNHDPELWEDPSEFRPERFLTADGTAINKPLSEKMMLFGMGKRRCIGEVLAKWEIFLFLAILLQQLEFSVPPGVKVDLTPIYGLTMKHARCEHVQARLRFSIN

[14] = system: GBM2; test: Induction of apoptosis in human GBM2 cells assessed as loss of mitochondrial membrane potential in presence of cyclosporine A at 10 uM after 2 hrs by JC-1 staining based fluorescence microscopy; type: functional, cell-based
[15] = target: Translocator protein (Rattus norvegicus, UniProt P16257); test: Displacement of [3H]PK11195 from TSPO receptor in Sprague-Dawley rat cerebral cortex membrane by radiometric competitive assay; type: tissue-based
[16] = target: Cytochrome P450 2C19 (Homo sapiens, UniProt P33261); test: Inhibition of CYP2C19 (unknown origin) using luciferin tagged substrate preincubated for 10 mins before substrate addition; type: ADME
[17] = Selectivity index, ratio of IC50 for normal human astrocytes to IC50 for human GBM2 cells
[18] = target: Cytochrome P450 2D6 (Homo sapiens, UniProt P10635); test: Inhibition of CYP2D6 (unknown origin) using luciferin tagged substrate preincubated for 10 mins before substrate addition; type: ADME
[19] = system: GBM; test: Tumoricidal effect in patient derived GBM 096T cells assessed as reduction in neurosphere formation at 0.1 uM after 1 to 2 weeks by 3D tumor clonogenic assay; type: functional, cell-based; details: Homo sapiens
[20] = system: GBM; test: Tumoricidal effect in patient derived GBM 448T cells assessed as reduction in neurosphere formation at 0.5 uM after 1 to 2 weeks by 3D tumor clonogenic assay; type: functional, cell-based; details: Homo sapiens
[21] = system: GBM; test: Tumoricidal effect in patient derived GBM 096T cells assessed as reduction in neurosphere formation at 0.5 uM after 1 to 2 weeks by 3D tumor clonogenic assay; type: functional, cell-based; details: Homo sapiens
[22] = Antiproliferative activity against human GBM2 cells assessed as reduction in cell viability at 10 uM incubated for 72 hrs by WST-1 method; type: functional; details: GBM2, 72 h
[23] = system: GBM2; test: Induction of apoptosis in human GBM2 cells assessed as loss of mitochondrial membrane potential at 10 uM after 2 hrs by JC-1 staining based fluorescence microscopy; type: functional, cell-based
[24] = system: GBM; test: Tumoricidal effect in patient derived GBM 025T cells assessed as reduction in neurosphere formation at 0.1 uM after 1 to 2 weeks by 3D tumor clonogenic assay; type: functional, cell-based; details: Homo sapiens
[25] = Selectivity index, ratio of IC50 for normal human astrocytes to IC50 for human GBM3 cells
[26] = target: Translocator protein (Rattus norvegicus) (UniProt P16257); test: Displacement of [3H]PK11195 from TSPO receptor in Sprague-Dawley rat cerebral cortex membrane at 10 uM by radiometric competitive assay; type: tissue-based
[27] = system: GBM; test: Tumoricidal effect in patient derived GBM 464T cells assessed as reduction in neurosphere formation at 0.5 uM after 1 to 2 weeks by 3D tumor clonogenic assay; type: functional, cell-based; details: Homo sapiens
[28] = Cytotoxicity against normal human astrocytes assessed as cell viability incubated for 72 hrs by WST-1 method; type: cell-based; details: Astrocyte
[29] = target: Translocator protein (Rattus norvegicus) (UniProt P16257); test: Displacement of [3H]PK11195 from TSPO receptor in Sprague-Dawley rat cerebral cortex membrane at 100 nM by radiometric competitive assay; type: tissue-based
[30] = target: Translocator protein (Rattus norvegicus) (UniProt P16257); test: Displacement of [3H]PK11195 from TSPO receptor in Sprague-Dawley rat cerebral cortex membrane at 10 nM by radiometric competitive assay; type: tissue-based
[31] = system: GBM; test: Tumoricidal effect in patient derived GBM 448T cells assessed as reduction in neurosphere formation at 0.1 uM after 1 to 2 weeks by 3D tumor clonogenic assay; type: functional, cell-based; details: Homo sapiens
[32] = system: GBM; test: Tumoricidal effect in patient derived GBM 047T cells assessed as reduction in neurosphere formation at 0.1 uM after 1 to 2 weeks by 3D tumor clonogenic assay; type: functional, cell-based; details: Homo sapiens
[33] = system: GBM; test: Tumoricidal effect in patient derived GBM 047T cells assessed as reduction in neurosphere formation at 0.5 uM after 1 to 2 weeks by 3D tumor clonogenic assay; type: functional, cell-based; details: Homo sapiens
[34] = system: GBM2; test: Induction of apoptosis in human GBM2 cells assessed as loss of mitochondrial membrane potential in presence of BAPTA at 10 uM after 2 hrs by JC-1 staining based fluorescence microscopy; type: functional, cell-based
[35] = system: GBM; test: Tumoricidal effect in patient derived GBM 464T cells assessed as reduction in neurosphere formation at 0.1 uM after 1 to 2 weeks by 3D tumor clonogenic assay; type: functional, cell-based; details: Homo sapiens
[36] = Antiproliferative activity against human GBM3 cells assessed as reduction in cell viability at 10 uM incubated for 72 hrs by WST-1 method; type: functional; details: GBM3, 72 h

With `O=C(Nc1cc2ncncc2cc1OCc1cccc(Cl)c1)Nc1cccc2ccccc12` the “Ratio IC50” value [1] was greater than 10.1, the IC50 [2] was 1.1 µM and the inhibition at 10 µM [3] was 100%. The Activity [4] was “Active”, the Activity [5] was “Active” and the IC50 [6] was greater than 10 µM. It also gave an IC50 [7] of 0.8 µM, an IC50 [8] greater than 10 µM and an inhibition [9] of 59%. For the same compound, the IC50 [10] was greater than 10 µM, the Activity [11] was “Active” and the IC50 [12] was 1.1 µM. The IC50 [13] was greater than 10 µM, the Activity [14] was “Active” and the IC50 [15] was 0.722 µM. The IC50 [16] was greater than 10 µM, the “Ratio IC50” value [17] was greater than 10.1 and the IC50 [18] was 5.1 µM. The Activity [19] was “Active”, the Activity [20] was “Active” and the Activity [21] was “Active”. For the same compound, the inhibition at 10 µM [22] was 99.9%, the Activity [23] was “Active” and the Activity [24] was “Active”. For the same compound, the “Ratio IC50” value [25] was greater than 10.1, the inhibition [26] was 85% and the Activity [27] was “Active”. The IC50 [28] was greater than 10 µM, the inhibition [29] was 15% and the inhibition [30] was 2%. For the same compound, the Activity [31] was “inactive”, the Activity [32] was “inactive” and the Activity [33] was “Active”. The Activity [34] was “Active”, the Activity [35] was “Active” and the inhibition at 10 µM [36] was 98.7%.
